Results on 20 compounds are retold here after patent publication US8486931B2, “Substituted oxindole compounds” (Abbott GmbH & Co. KG, priority 2007, dated 2013).

Each structure is given as a SMILES string.

The target in this test is T1, human vasopressin V1b receptor (Homo sapiens, UniProt P47901).
T1 construct: expressed in transfected cells; host or cells: CHO-K1 (cell line hV1b-3H2_CHO), membrane preparation
T1 sequence (P47901 1-424): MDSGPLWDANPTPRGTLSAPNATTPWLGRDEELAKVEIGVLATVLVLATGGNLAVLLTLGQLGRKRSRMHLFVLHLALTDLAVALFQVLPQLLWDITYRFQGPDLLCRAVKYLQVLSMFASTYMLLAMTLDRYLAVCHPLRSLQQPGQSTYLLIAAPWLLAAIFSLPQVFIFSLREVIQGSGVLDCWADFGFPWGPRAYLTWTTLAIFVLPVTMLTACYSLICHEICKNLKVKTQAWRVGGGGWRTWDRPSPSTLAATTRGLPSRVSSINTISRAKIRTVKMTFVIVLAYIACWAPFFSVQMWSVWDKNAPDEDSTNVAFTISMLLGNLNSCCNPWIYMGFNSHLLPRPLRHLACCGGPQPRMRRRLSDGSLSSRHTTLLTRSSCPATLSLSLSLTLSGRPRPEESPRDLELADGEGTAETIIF
Nature of the test: Vasopressin V1b receptor binding assay. To be noted: membranes from CHO-K1 cells with stably expressed human V1b receptors, 1.5 nM 3H-AVP displacement; with more than one stereogenic center: the diastereomer with stronger affinity. The method, then:
Such compounds can be investigated in suitable assays which establish the affinity to a receptor, with the affinity constant Ki represening a measure of the potency of the compounds and a smaller value representing a larger potency. The compounds of the invention were tested in the following receptor binding assay for their affinity for the V1 b receptor.
Vasopressin V1 b Receptor Binding Assay:
The test substances were dissolved in a concentration of 10^−2 M in DMSO (dimethyl sulfoxide) and further diluted to 5×10^−4 M to 5×10^−9 M in DMSO. This series of DMSO predilutions was diluted 1:10 with assay buffer. The substance concentration was again diluted 1:5 in the assay mixture (2% DMSO in the mixture).
The membrane pellet was again homogenized and centrifuged as described and then taken up in 50 mM Tris-HCl, pH 7.4, homogenized and stored in aliquots frozen in liquid nitrogen at −190° C.
The incubation buffer was: 50 mM Tris, 10 mM MgCl2, 0.1% BSA, pH 7.4.
The nonspecific binding was determined with 1 μM AVP (Bachem #H1780). All determinations were carried out as triplicate determinations. After incubation (60 minutes at room temperature), the free radioligand was removed by vacuum filtration (Skatron cell harvester 7000) through Whatman GF/B glass fiber filter mats, and the filters were transferred into scintillation vials. The liquid scintillation measurement took place in a Tricarb model 2000 or 2200CA instrument (Packard). Conversion of the measured cpm into dpm was carried out with the aid of a standard quench series.
The binding parameters were calculated by nonlinear regression in SAS.
The above assay was used to measure the affinities of the compounds of the invention for the human vasopressin V1 b receptor and to determine with affinity constants (Ki).
As usually defined, the Ki is a dissociation constant, usually derived from enzyme kinetics or from competition with a known ligand. Higher therefore signals lower affinity. Regarding `CCOc1ccccc1C1(N2CCN(c3ccncc3)C(C)C2)C(=O)N(S(=O)(=O)c2cccc3cccnc23)c2ccc(C#N)cc21` (racemic) [Example 17, (±)-5-Cyano-3-(2-ethoxyphenyl)-3-(3-methyl-4-pyridin-4-ylpiperazin-1-yl)-1-(quinoline-8-sulfonyl)-2,3-dihydro-1H-indol-2-one], the inhibition constant Ki is 10 to 50 nM. The result for `CCOc1ccccc1C1(N2CCN(c3ccncc3)CC2)C(=O)N(S(=O)(=O)c2ccc(C)cn2)c2ccc(C#N)cc21` (single isomer, unassigned; (+)) [Example 61, (+)-5-Cyano-3-(2-ethoxyphenyl)-1-(5-methylpyridine-2-sulfonyl)-3-(4-pyridin-4-yl-piperazin-1-yl)-2,3-dihydro-1H-indol-2-one] reads less than 10 nM; that for `COc1cccc(C2(N3CCN(c4ccncc4)CC3)C(=O)N(S(=O)(=O)c3cccc4cccnc34)c3ccc(Cl)cc32)c1OC` (racemic) [Example 2, (±)-5-Chloro-3-(2,3-dimethoxyphenyl)-3-(4-pyridin-4-ylpiperazin-1-yl)-1-(quinoline-8-sulfonyl)-1,3-dihydroindol-2-one], 10 to 50 nM. The result for `CCOc1nc(Cl)ccc1C1(N2CCN(c3ccncc3)CC2)C(=O)N(S(=O)(=O)c2ccc(C)cn2)c2ccc(C#N)cc21` (racemic) [Example 23, (±)-5-Cyano-3-(6-chloro-2-ethoxypyridin-3-yl)-1-(5-methylpyridine-2-sulfonyl)-3-(4-pyridin-4-ylpiperazin-1-yl)-2,3-dihydro-1H-indol-2-one] reads 10 to 50 nM; that for `CCOc1nc(Cl)ccc1C1(N2CCCN(c3ccncc3)CC2)C(=O)N(S(=O)(=O)c2ccc(OC)c3cccnc23)c2ccc(C#N)cc21` (racemic) [Example 71, (±)-5-Cyano-3-(6-chloro-2-ethoxypyridin-3-yl)-1-(5-methoxyquinoline-8-sulfonyl)-3-(4-pyridin-4-yl-[1,4]diazepan-1-yl)-2,3-dihydro-1H-indol-2-one], 10 to 50 nM. The result for `CCOc1ccccc1C1(N2CCN(c3ccncc3)CC2)C(=O)N(S(=O)(=O)c2cccc3cccnc23)c2ccc(C#N)cc21` (racemic) [Example 38, (±)-5-Cyano-3-(2-ethoxyphenyl)-3-(4-pyridin-4-ylpiperazin-1-yl)-1-(quinoline-8-sulfonyl)-2,3-dihydro-1H-indol-2-one] reads 10 to 50 nM; that for `CCOc1ccccc1C1(N2CCN(c3ccncc3)CC2)C(=O)N(S(=O)(=O)c2ccccn2)c2ccc(C#N)cc21` (racemic) [Example 14, (±)-5-Cyano-3-(2-ethoxyphenyl)-1-(pyridine-2-sulfonyl)-3-(4-pyridin-4-yl-piperazin-1-yl)-2,3-dihydro-1H-indol-2-one], 10 to 50 nM. With `CCOc1ccc(OC)cc1C1(N2CC3CN(c4ccncc4)CC3C2)C(=O)N(S(=O)(=O)c2ccc(OC)c3cccnc23)c2ccc(C#N)cc21` (racemic) [Example 74, (±)-5-Cyano-3-(2-ethoxy-5-methoxyphenyl)-1-(5-methoxyquinoline-8-sulfonyl)-3-(5-pyridin-4-ylhexahydropyrrolo[3,4-c]pyrrol-2-yl)-2,3-dihydro-1H-indol-2-one], the inhibition constant Ki was 10 to 50 nM. The value for `CCOc1ccc(OC)cc1C1(N2CCC(C3CCNCC3)CC2)C(=O)N(S(=O)(=O)c2ccc(OC)cn2)c2ccc(C#N)cc21` (racemic) [Example 181, (±)-5-Cyano-3-[4,4′]bipiperidinyl-1-yl-3-(2-ethoxy-5-methoxy-phenyl)-1-(5-methoxy-pyridine-2-sulfonyl)-2,3-dihydro-1H-indol-2-one] was less than 10 nM. The result for `CCOc1cc(OC)ccc1C1(N2CCC(N3CCN(C)CC3)CC2)C(=O)N(S(=O)(=O)c2ccc(OC)cn2)c2ccc(C#N)cc21` (racemic) [Example 171, (±)-5-Cyano-3-(2-ethoxy-4-methoxy-phenyl)-1-(5-methoxy-pyridine-2-sulfonyl)-3-[4-(4-methyl-piperazin-1-yl)-piperidin-1-yl]-2,3-dihydro-1H-indol-2-one] reads less than 10 nM; that for `CCOc1ccc(OC)cc1C1(N2CCN(c3ccnc(C)c3)CC2)C(=O)N(S(=O)(=O)c2ccc(C)cn2)c2ccc(C#N)cc21` (racemic) [Example 52, (±)-5-Cyano-3-(2-ethoxy-5-methoxyphenyl)-1-(5-methylpyridine-2-sulfonyl)-3-[4-(2-methylpyridin-4-yl)piperazin-1-yl]-2,3-dihydro-1H-indol-2-one], 10 to 50 nM. For `CCOc1cc(OC)ccc1C1(N2CCN(c3ccnc(C(C)C)c3)CC2)C(=O)N(S(=O)(=O)c2ccc(OC)cn2)c2ccc(C#N)cc21` (racemic) [Example 175, (±)-5-Cyano-3-(2-ethoxy-4-methoxy-phenyl)-3-[4-(2-isopropyl-pyridin-4-yl)-piperazin-1-yl]-1-(5-methoxy-pyridine-2-sulfonyl)-2,3-dihydro-1H-indol-2-one], the inhibition constant Ki was less than 10 nM. The value for `CCOc1nc(Cl)ccc1C1(N2CCN(c3ccnc(C)c3)CC2)C(=O)N(S(=O)(=O)c2ccc(OC)c3cccnc23)c2ccc(C#N)cc21` (racemic) [Example 85, (±)-5-Cyano-3-(6-chloro-2-ethoxypyridin-3-yl)-1-(5-methoxyquinoline-8-sulfonyl)-3-[4-(2-methylpyridin-4-yl)piperazin-1-yl]-2,3-dihydro-1H-indol-2-one] was less than 10 nM; that for `CCOc1ccccc1C1(N2CCN(c3ccncc3)CC2)C(=O)N(S(=O)(=O)c2cccc3c(CC)ccnc23)c2ccc(C#N)cc21` (racemic) [Example 84, (±)-5-Cyano-3-(2-ethoxyphenyl)-1-(4-ethylquinoline-8-sulfonyl)-3-(4-pyridin-4-yl-piperazin-1-yl)-2,3-dihydro-1H-indol-2-one] was less than 10 nM; that for `CCOc1ccc(OC)cc1C1(N2CCN(c3ccnc(C4CC4)c3)CC2)C(=O)N(S(=O)(=O)c2ccc(OC)c3cccnc23)c2ccc(C#N)cc21` (racemic) [Example 70, (±)-5-Cyano-3-[4-(2-cyclopropylpyridin-4-yl)piperazin-1-yl]-3-(2-ethoxy-5-methoxyphenyl)-1-(5-methoxyquinoline-8-sulfonyl)-2,3-dihydro-1H-indol-2-one] was less than 10 nM. The value for `CCOc1nc(Cl)ccc1C1(N2CCC(N3CCNCC3)CC2)C(=O)N(S(=O)(=O)c2ccc(OC)cn2)c2ccc(C#N)cc21` (racemic) [Example 182, (±)-5-Cyano-3-(6-chloro-2-ethoxy-pyridin-3-yl)-1-(5-methoxy-pyridine-2-sulfonyl)-3-(4-piperazin-1-yl-piperidin-1-yl)-2,3-dihydro-1H-indol-2-one] was less than 10 nM. On to `COc1ccc(CN(C)C)cc1C1(N2CCN(c3ccncc3)CC2)C(=O)N(S(=O)(=O)c2cccc3cccnc23)c2ccc(Cl)cc21` (racemic) [Example 41, (±)-5-Chloro-3-(5-dimethylaminomethyl-2-methoxyphenyl)-3-(4-pyridin-4-ylpiperazin-1-yl)-1-(quinoline-8-sulfonyl)-1,3-dihydroindol-2-one], for which the Ki fell in the range of 10 to 50 nM. The value for `COc1nc(Cl)ccc1C1(N2CCN(c3ccncc3)CC2)C(=O)N(S(=O)(=O)c2cccc3cccnc23)c2ccc(C#N)cc21` (racemic) [Example 19, (±)-5-Cyano-3-(6-chloro-2-methoxypyridin-3-yl)-3-(4-pyridin-4-ylpiperazin-1-yl)-1-(quinoline-8-sulfonyl)-2,3-dihydro-1H-indol-2-one] was 10 to 50 nM; that for `CCOc1ccc(OC)cc1C1(N2CCN(c3ccnc(C4CC4)c3)CC2)C(=O)N(S(=O)(=O)c2cccc3cccnc23)c2ccc(C#N)cc21` (racemic) [Example 66, (±)-5-Cyano-3-[4-(2-cyclopropylpyridin-4-yl)piperazin-1-yl]-3-(2-ethoxy-5-methoxyphenyl)-1-(quinoline-8-sulfonyl)-2,3-dihydro-1H-indol-2-one] was less than 10 nM; that for `CCOc1ccccc1C1(N2CCCN(c3ccncc3)CC2)C(=O)N(S(=O)(=O)c2ccc(OC)cn2)c2ccc(C#N)cc21` (racemic) [Example 78, (±)-5-Cyano-3-(2-ethoxyphenyl)-1-(5-methoxypyridine-2-sulfonyl)-3-(4-pyridin-4-yl-[1,4]diazepan-1-yl)-2,3-dihydro-1H-indol-2-one] was 10 to 50 nM.
